According to patent EP4480471A1, “SPECIFIC COMPOUNDS FOR TREATING SIGNS OF SKIN AGING AND/OR HAIR AGING” (DSM IP Assets B.V., priority 2023, dated 2024):

Test system: human dermal fibroblasts
Test: Senolytic activity study: SA-beta-galactosidase flow cytometry on a mixed 70% normal / 30% senescent cell population
Assay type: cell-based
Settings: 72 hours; for Senescent cells left from 30%: normalized to untreated control, n = 4
Procedure: Normal and senescent cell populations were obtained from normal human dermal fibroblasts. For the normal cell population, the cells were seeded in cell culture medium (Dulbecco's Modified Eagle Medium supplemented with 10% serum and 1% antibiotics) and allowed to adhere and proliferate in a humidified cell incubator maintaining 37°C and 5% CO2. These were then passaged or collected when 90% confluent. For the senescent cell population, the normal fibroblast cells were at this stage shortly exposed to 200 µM H2O2 followed by normal cell culture medium. Several days later, the cells were treated again with H2O2 to obtain a fully senescent population.
Both normal and senescent populations were mixed into a 70% normal and 30% senescent cell population and represented the treatment population. Afterward, the 70% normal and 30% senescent cell population were seeded in cell culture medium and allowed to adhere in the cell incubator. After adherence, the medium was aspirated, and the treatment medium (Dulbecco's Modified Eagle Medium supplemented with 1% serum) containing the respective compounds at various concentrations (see Table 1) was added to the cells. For assay validation purposes, one condition with treatment medium only (without compound as negative control) and one condition with navitoclax (a known senolytic as positive control); both not included in the presented data. The cells were incubated in the cell incubator for at least 72 hours. Afterward, senescence-associated beta-galactosidase was visualized - a well-known senescence marker- in the cells to quantify the senescence levels using flow cytometry.
Data are normalized to the untreated control (30% senescent cells and 70% normal cells) (n = 4).

[1] = 1 µM, 70% normal and 30% senescent human dermal fibroblasts
[2] = 5 µM, 70% normal and 30% senescent human dermal fibroblasts
[3] = 25 µM, 70% normal and 30% senescent human dermal fibroblasts
[4] = concentration not given, human dermal fibroblasts

Compound: O=c1c(-c2ccc(O)c(O)c2)coc2cc(O)ccc12 [(I'2)]
- Senolytic effect [1]: yes
- Senolytic effect [2]: yes
- Senolytic effect [3]: yes

Compound: O=c1c(O)c(-c2ccc(O)cc2)oc2cc(O)cc(O)c12 [(I'17)]
- Senolytic effect [1]: yes
- Senolytic effect [2]: yes
- Senolytic effect [3]: yes

Compound: COc1c(-c2ccccc2)oc2ccccc2c1=O [(I'23)]
- Senolytic effect [3]: yes
- Senescent cells left from 30% [3]: 21%
- Senolytic effect [4]: yes

Compound: O=C1CC(c2ccccc2)Oc2cc(O)ccc21 (centres unmarked) [(I"8)]
- Senolytic effect [1]: yes
- Senescent cells left from 30% [1]: 24%
- Senolytic effect [2]: yes
- Senescent cells left from 30% [2]: 24%
- Senolytic effect [4]: yes

Compound: COc1cc(O)c2c(=O)c(O)c(-c3ccc(O)c(O)c3)oc2c1 [(I'20)]
- Senolytic effect [1]: yes
- Senolytic effect [2]: yes
- Senolytic effect [3]: yes

Compound: COc1cc(O)c2c(c1)OC(c1ccccc1)CC2=O (centres unmarked) [(I"6)]
- Senolytic effect [1]: yes
- Senolytic effect [2]: yes
- Senolytic effect [3]: yes

Compound: O=C1c2c(O)cc(O)cc2OC(c2cc(O)c(O)c(O)c2)C1O (centres unmarked) [(I"3)]
- Senolytic effect [1]: yes
- Senolytic effect [2]: yes
- Senolytic effect [3]: yes

Compound: COc1cc(-c2cc(=O)c3c(O)cc(O)cc3o2)ccc1O [(I'8)]
- Senolytic effect [1]: yes
- Senolytic effect [2]: yes
- Senolytic effect [3]: yes

Compound: COc1cc(C)c2c(=O)c(-c3ccccc3)coc2c1 [(I'4)]
- Senolytic effect [1]: yes
- Senolytic effect [2]: yes
- Senolytic effect [3]: yes

Compound: COc1cc(-c2oc3cc(O)ccc3c(=O)c2O)cc(OC)c1OC [(I'3)]
- Senolytic effect [1]: yes
- Senolytic effect [2]: yes
- Senolytic effect [3]: yes

Compound: O=c1c(O)c(-c2cc(O)c(O)c(O)c2)oc2cc(O)ccc12 [(I'21)]
- Senolytic effect [1]: yes
- Senolytic effect [2]: yes
- Senolytic effect [3]: yes

Compound: COc1cc([C@@H]2CC(=O)c3c(O)cc(O)cc3O2)ccc1O [(I"1)]
- Senolytic effect [3]: yes
- Senescent cells left from 30% [3]: 23%

Compound: COc1ccc(-c2cc(=O)c3ccc(O)cc3o2)cc1 [(I'32)]
- Senolytic effect [1]: yes
- Senolytic effect [2]: yes
- Senolytic effect [3]: yes

Compound: COc1ccc(-c2cc(=O)c3c(O)cc(O)cc3o2)cc1O [(I'27)]
- Senolytic effect [1]: yes
- Senolytic effect [2]: yes
- Senolytic effect [3]: yes

Compound: O=C1CC(c2ccc(O)c(O)c2)Oc2cc(O)cc(O)c21 (centres unmarked) [(I"11)]
- Senolytic effect [1]: yes
- Senolytic effect [2]: yes
- Senolytic effect [4]: yes

Compound: COc1c(O)cc2oc(-c3ccc(O)c(O)c3)cc(=O)c2c1O [(I'18)]
- Senolytic effect [1]: yes
- Senolytic effect [2]: yes
- Senolytic effect [3]: yes

Compound: O=c1cc(-c2cc(O)c(O)c(O)c2)oc2cc(O)cc(O)c12 [(I'22)]
- Senolytic effect [1]: yes
- Senolytic effect [2]: yes
- Senolytic effect [3]: yes

Compound: CC(C)Oc1ccc2c(=O)c(-c3ccccc3)coc2c1 [(I'16)]
- Senolytic effect [1]: yes
- Senolytic effect [2]: yes
- Senolytic effect [3]: yes

Compound: O=c1cc(-c2ccc(O)c(O)c2)oc2c(O)c(O)ccc12 [(I'1)]
- Senolytic effect [1]: yes
- Senolytic effect [2]: yes
- Senolytic effect [3]: yes

Compound: COc1ccc(-c2coc3cc(O)cc(O)c3c2=O)cc1 [(I'7)]
- Senolytic effect [1]: yes
- Senolytic effect [2]: yes
- Senolytic effect [3]: yes

Compound: O=c1c(O)c(-c2ccc(O)cc2)oc2c(O)c(O)cc(O)c12 [(I'10)]
- Senolytic effect [2]: yes
- Senolytic effect [3]: yes

Compound: COc1cc2oc(-c3ccccc3)cc(=O)c2c(O)c1O [(I'6)]
- Senolytic effect [1]: yes
- Senolytic effect [2]: yes
- Senolytic effect [3]: yes

Compound: COc1cc2c(=O)c(-c3ccc(O)cc3)coc2cc1O [(I'28)]
- Senolytic effect [3]: yes
- Senescent cells left from 30% [3]: 23%
- Senolytic effect [4]: yes

Compound: COc1cc(O)c2c(c1)OC(c1ccc(O)cc1)CC2=O (centres unmarked) [(I"7)]
- Senolytic effect [1]: yes
- Senolytic effect [2]: yes
- Senolytic effect [3]: yes

Compound: COc1cc(-c2cc(=O)c3c(O)c(OC)c(OC)c(OC)c3o2)cc(OC)c1OC [(I'29)]
- Senolytic effect [1]: yes
- Senolytic effect [2]: yes
- Senolytic effect [3]: yes

Compound: COc1c(O[C@@H]2O[C@H](CO)[C@@H](O)[C@H](O)[C@H]2O)cc2oc(-c3ccc(O)c(O)c3)c(O)c(=O)c2c1O [(I'15)]
- Senolytic effect [1]: yes
- Senolytic effect [2]: yes
- Senolytic effect [3]: yes

Compound: COc1ccc(-c2cc(=O)c3c(OC)c(OC)c(OC)cc3o2)cc1 [(I'33)]
- Senolytic effect [1]: yes
- Senolytic effect [2]: yes
- Senolytic effect [3]: yes

Compound: COc1cc2oc(-c3ccccc3)cc(=O)c2c(OC)c1OC [(I'24)]
- Senolytic effect [2]: yes
- Senolytic effect [3]: yes
- Senolytic effect [4]: yes

Compound: COc1cc(-c2coc3cc4c(c(OC)c3c2=O)OCO4)cc(OC)c1OC [(I'30)]
- Senolytic effect [3]: yes
- Senescent cells left from 30% [3]: 26%
- Senolytic effect [4]: yes

Compound: COc1cc(O)c2c(=O)c(O)c(-c3ccc(O)c(OC)c3)oc2c1 [(I'19)]
- Senolytic effect [1]: yes
- Senolytic effect [2]: yes
- Senolytic effect [3]: yes

Compound: O=c1c(O)c(-c2ccccc2O)oc2cc(O)cc(O)c12 [(I'25)]
- Senolytic effect [1]: yes
- Senolytic effect [2]: yes
- Senolytic effect [3]: yes

Compound: COc1cc(C2CC(=O)c3c(O)cc(O)cc3O2)ccc1O (centres unmarked) [(I"10)]
- Senolytic effect [3]: yes
- Senescent cells left from 30% [3]: 22%
- Senolytic effect [4]: yes

Compound: O=C1c2c(O)cc(O)cc2O[C@H](c2cc(O)c(O)c(O)c2)[C@H]1O [(I"2)]
- Senolytic effect [1]: yes
- Senolytic effect [2]: yes
- Senolytic effect [3]: yes

Compound: O=c1c(-c2ccc(O)cc2)coc2cc(O[C@@H]3O[C@H](CO)[C@@H](O)[C@H](O)[C@H]3O)ccc12 [(I'26)]
- Senolytic effect [1]: yes
- Senescent cells left from 30% [1]: 25%
- Senolytic effect [4]: yes

Compound: CC1OC(Oc2c(-c3cc(O)c(O)c(O)c3)oc3cc(O)cc(O)c3c2=O)C(O)C(O)C1O (centres unmarked) [(I'14)]
- Senolytic effect [1]: yes
- Senolytic effect [2]: yes
- Senolytic effect [3]: yes

Compound: COc1ccc(C2CC(=O)c3c(O)cc(O)cc3O2)cc1O (centres unmarked) [(I"4)]
- Senolytic effect [1]: yes
- Senolytic effect [2]: yes
- Senolytic effect [3]: yes

Compound: O=c1cc(-c2ccc(O)cc2)oc2c(-c3c(O)cc(O)c4c(=O)cc(-c5ccc(O)cc5)oc34)c(O)cc(O)c12 [(I'9)]
- Senolytic effect [1]: yes
- Senolytic effect [2]: yes
- Senolytic effect [3]: yes

Compound: COc1ccc(-c2cc(=O)c3c(O)cc(O[C@@H]4O[C@H](CO)[C@@H](O)[C@H](O)[C@H]4O)cc3o2)cc1O [(I'11)]
- Senolytic effect [2]: yes
- Senolytic effect [3]: yes

Compound: O=C1CC(c2ccccc2)Oc2ccc(O)cc21 (centres unmarked) [(I"5)]
- Senolytic effect [1]: yes
- Senolytic effect [2]: yes
- Senolytic effect [3]: yes

Compound: COc1ccc(-c2cc(=O)c3c(OC)cc(OC)cc3o2)cc1 [(I'5)]
- Senolytic effect [1]: yes
- Senolytic effect [2]: yes
- Senolytic effect [3]: yes
